From patent publication US11780821B2, “Inhibitors of fibroblast activation protein” (Praxis Biotech LLC, priority 2017, dated 2023)

Legend:
plasma FAP activity = molecular target: T1, plasma FAP activity (Rattus norvegicus, UniProt A0A9K3Y732); assay: rhFGF21 administration in conjunction with FAP inhibition in vivo; design: species or system Sprague Dawley rats
T1 construct: from tissue; host or cells: rat plasma after oral dosing
T1 sequence (A0A9K3Y732 1-761): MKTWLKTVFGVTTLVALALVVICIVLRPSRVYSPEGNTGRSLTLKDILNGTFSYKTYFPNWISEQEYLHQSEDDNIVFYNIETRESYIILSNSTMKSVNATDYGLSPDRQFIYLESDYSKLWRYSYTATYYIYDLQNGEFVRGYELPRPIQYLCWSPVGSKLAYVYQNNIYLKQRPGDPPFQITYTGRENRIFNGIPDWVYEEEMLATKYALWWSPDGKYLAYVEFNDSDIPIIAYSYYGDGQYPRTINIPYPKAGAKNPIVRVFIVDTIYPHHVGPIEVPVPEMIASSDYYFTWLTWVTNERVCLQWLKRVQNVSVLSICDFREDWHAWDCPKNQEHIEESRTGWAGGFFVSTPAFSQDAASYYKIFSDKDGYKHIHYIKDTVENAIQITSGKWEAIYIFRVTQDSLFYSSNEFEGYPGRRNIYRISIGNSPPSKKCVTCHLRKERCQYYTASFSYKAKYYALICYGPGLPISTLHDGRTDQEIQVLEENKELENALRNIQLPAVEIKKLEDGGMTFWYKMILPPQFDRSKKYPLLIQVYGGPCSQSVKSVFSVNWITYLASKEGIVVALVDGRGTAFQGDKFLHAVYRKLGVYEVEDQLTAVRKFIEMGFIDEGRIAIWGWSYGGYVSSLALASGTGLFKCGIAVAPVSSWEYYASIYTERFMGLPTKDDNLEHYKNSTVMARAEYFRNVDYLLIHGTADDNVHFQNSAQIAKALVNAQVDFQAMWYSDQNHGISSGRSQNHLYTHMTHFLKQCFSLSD
Excerpt: To determine if exemplary compounds of the invention can contribute to extend the half-life of hFGF21 in vivo, rats were orally dosed with vehicle or compound 13 (an exemplary compound) followed by sub-therapeutic dose of rhFGF21.
Male Sprague Dawley rats, approximately 7-8 weeks old (˜250 g), were obtained from the vivarium of Universidad Católica de Chile (Santiago, Chile). Animals were acclimated for a minimum period of 4 days upon arrival at the testing facility. At the day of study, two rats were anesthetized using sevoflurane and subjected to surgical implantation of catheters in carotid artery and jugular vein. Catheter plugs were fixed to the external ends of the catheters and kept patent using an anti-coagulant heparinized saline solution containing 25 U/mL Heparin (Fresenius Kabi, Laboratorio Sanderson) in 0.9% NaCl Apiroflex (Fresenius Kabi, Laboratorio Sanderson). After surgical recovery, rats were weighed and identified by marking the tail with numbers using a non-toxic permanent marker for designation of treatments described in Table 9.
Compound 13 (an exemplary compound) was formulated at 5 mg/ml in vehicle PEG200/dH2O (50/50, v/v) for oral administration and rhFGF21 was formulated in 0.9% NaCl Apiroflex at 100 μg/mL. […]

[1] = tested on: MC38 mouse colon cancer cell line; assay: Tumor inhibition in vivo (MC38 tumor in C57/BL6 mice); details: 50 mg/kg orally twice daily from day 7 to day 22; no statistical significance observed
Description: Female C57/BL6 mice (approximately 8-9 weeks old; 20-21 gr) obtained from the vivarium of Fundación Ciencia & Vida (Santiago, Chile) were maintained in a temperature-controlled room with 12/12 hour light/dark schedule with food and water ad libitum. The mice were acclimated for a minimum period of 4 days upon arrival at the testing facility.
MC38 mouse colon cancer cell line was maintained as monolayer culture in DMEM-F12 (Cat. No.: SH30023.01, Hyclone) supplemented with 10% fetal bovine serum (Cat. No.: 16000, Gibco) and penicillin/streptomycin (Cat. No.: 15140122, Gibco) at 37° C. in an atmosphere with 5% CO2. The cells were routinely subcultured every 3 days to maintain growth at exponential phase. […] Cell pellet was resuspended in approximately 10× volume of cell culture medium and counted. Cell viability was determined to be >95% by trypan blue staining.
At the day of inoculation, female C57/B16 mice (n=15 total) were weighed and identified by marking the tail with numbers using a non-toxic permanent marker. […] Tumors were measured three times per week with digital calipers and tumors volumes, expressed in mm^3, were calculated with the following formula: Tumor volume (mm^3)=(a×b^2)/2 […]
Seven days after inoculation, mean tumor volume was about 100 mm^3. […] Body weight of the mice and tumor volume was recorded two or three times per week for a total of 22 days. […]

N#C[C@@H]1CC(F)(F)CN1C(=O)CNC(=O)c1ccncc1-c1ccccc1 [Compound 13, (S)—N-(2-(2-cyano-4,4-difluoropyrrolidin-1-yl)-2-oxoethyl)-3-phenylisonicotinamide]
amount of rhFGF21 detected through time in the plasma (plasma FAP activity; 50 mg/kg PO pre-treatment, then rhFGF21 90 μg/Kg IV): increased
plasma FAP activity (plasma FAP activity; oral single dose of 50 mg/kg): potently suppressed

N#C[C@@H]1CC(F)(F)CN1C(=O)CNC(=O)c1ccncc1C1CC1 [Compound 24, (S)—N-(2-(2-cyano-4,4-difluoropyrrolidin-1-yl)-2-oxoethyl)-3-cyclopropylisonicotinamide]
tumor volume vs vehicle [1]: smaller volume of tumor
